Patent publication US7635779B2, “Oxy substituted flavones as antihyperglycemic and antidyslipidemic agents” (Council of Scientific & Industrial Research, priority 2004, dated 2009)
Several values for one entry are separate records, joined by “and”; a condition that tells them apart may be missing. Identical values can stand only once.

Assays:
Format in all cases: in vivo, mouse
Swiss mice [1] = assay: Maximal electroshock seizures (MES); conditions: 100 mg/kg p.o.; for Numbers of mice showed seizures/numbers of mice tested: 48 mAmp for 0.2 sec
Description: Control and treated mice (−60 min) were subjected to electric shock (48 mAmp for 0.2 sec) through pinna electrode.

Swiss mice [2] = assay: Neuromuscular coordination (muscle tone, rota rod test); design: key to Muscle tone score (hind limb rigidity): 0=Flaccid; 1=Normal; 2=Rigid; conditions: for Effect on neuromuscular coordination as compared to control / Rota rod test-numbers of falls / Rota rod test-stay period at 1 h (MEAN ± SE): 100 mg/kg p.o.; for Rota rod test-stay period at 1 h (MEAN ± SE): test duration 2 min; for Muscle tone score (hind limb rigidity): resistance to passive flexion of hind-paw
Description: By resistance to passive flexion of each hind-paw
Score: 0=Flaccid, 1=Normal, 2=Rigid, • ii). Rota Rod Test
The period of stay on rotating rod (speed: 5 rotations/min; total duration of test 2 min) for each control and treated mice (−60 min) was recorded by Rotamex 4 (Columbus Instr., USA). The mice were trained to stay for period of 2 min on rotating rod and only trained mice were included in the study.

Swiss mice [3] = assay: Gross behaviour: autonomic responses; conditions: 100 mg/kg p.o.
Description: 34 and 49 (100 mg/kg, p.o.) was administered in forenoon. […] Piloerection: Erection of body hairs (+: present or −: absent). • ii). Salivation: Secretion of saliva is observed as dripping of saliva from mouth, which is scored as 1=mild, 2=moderate and 3=severe as compared to control (0=no dripping). • iii). Lachrymation: Secretion and discharge of tears observed as shedding of tears around the lower eyelid, which is scored as 1=mild, 2=moderate and 3=severe as compared to control (0=no shedding). • iv). Palpebral closure: Ptosis (drooping of upper eyelids) present or absent • v). Exopthalmos: Protrusion (bulging) of eye ball; present or absent • vi). Defaecation: scored as 1=mild, 2=moderate and 3=severe as compared to control • vii). Urination: scored as 1=mild, 2=moderate and 3=severe as compared to control Results

db/db mice [4] = assay: Antidyslipidemic activity in db/db mice; conditions: for % Fall in lipid levels HDL: HDL-cholesterol; for % Fall in lipid levels HDL / % Fall in lipid levels Chol.: + marks a rise; for % Fall in lipid levels Chol.: cholesterol; for % Fall in lipid levels TG: triglycerides
Source text: (§1) The db/db mouse is a well-characterized model of type II diabetes. The background for the db/db mouse is the C57BL/Ks strain. The major deficiency of the C57BL/KsBom-db mouse (db/db) is lack of a functional leptin receptor. This leads to defective leptin signaling and a complete lack of feedback from leptin. […] The db/db mouse develops NIDDM from around week 10. The disease is stable until week 20, where destruction of pancreatic β-cells can be recognized clinically as decreasing levels of plasma insulin and very severe hyperglycemia. The male mice are more diabetic than female and will normally die earlier. The advantage of using male mice for experimental purposes is that the fluctuations in plasma parameters are less than in the females where the estrogen cycles affects the clinical diabetes mellitus. The optimal age of db/db mice used for experiments will be from week 12 to 18 when they have developed NIDDM with diabetic dyslipidemia but still have functional β-cells in the pancreas. C57BL/KsBom-db mice 12-18 weeks, 40-50 g bred in the animal house of CDRI, Lucknow. 10 male mice were used in the experiments. The mice were housed in groups of 5 individuals in a room controlled for temperature (23+2° C.) and 12/12 hours light/dark cycle (lights on at 6.00 am). Body weight was measured daily from day 1 to day 10. All animals had free access to fresh water and to normal chow except on the days of the postprandial protocol day 6 and during the overnight fast before the OGTT on day 10. Blood glucose was checked every morning up till day 5. On day 6 postprandial protocol was employed, in this method blood glucose was checked at −0.30 min and 0 h. Test compounds were given to the treatment group whereas control group received only gum acacia (1.0%); the blood glucose was again checked at 1, 2, 3, 4 and 6 h post test compound treatment. Finally on day 10 an oral glucose tolerance test (OGTT) was performed after an overnight fasting. Blood glucose was measured at −0.30 min and test drugs were fed, blood glucose was again measured at 0.0 min post treatment, at this juncture glucose solution was given at a dose of 3 gm/kg to all the groups including control group; the profile of blood glucose was checked at 30 min, 60 min, 90 min and 120 min post glucose administration. Quantitative glucose tolerance of each animal was calculated by Area Under Curve (AUC) method (Prism Software). Comparing the AUC of experimental and control groups determined the percentage antihyperglycemic activity. Statistical comparison was made by Dunnett's test.
Cholesterol and triglycerides were estimated using the same procedures as given above.
HDL-Cholesterol was estimated using the kit provided by the Roche Diagnostics. Cholestest N HDL is a liquid reagent that directly measures the HDL-cholesterol concentration in serum by a new method that is based on the selective solubilising effect of proprietary detergent to the different lipoproteins. In the assay system, only HDL is solubilised by a special detergent; other lipoproteins are not disrupted. After HDL is selectively disrupted, HDL cholesterol is measured enzymatically (Gordon, T.; Casstelli, W. P.; Hjortland, M. C.; Kannel, W. B.; Dawber, T. R. High density lipoproteins as a protective factor against coronary heart disease, Am. J. Med. 1977, 62, 707-714.).

db/db mice [5] = assay: Antihyperglycemic activity in db/db mice; conditions: for % Fall in blood glucose levels, 6 days: day 6; for % Fall in blood glucose levels, 10 days: day 10
Source text: as §1

Swiss mice [6] = assay: Barbiturate induced hypnosis (sleeping time); conditions: for Change in barbiturate induced hypnosis: 100 mg/kg p.o.; for Sleep-duration (MEAN ± SE): 100 mg/kg p.o. 30 min prior to Pentobarbitone 45 mg/kg i.p.
Description: Sleeping time is calculated by the duration between loss and regain of righting reflex following administration of Pentobarbitone (45 mg/kg, i.p.). 34 and 49 in the dose 100 mg/kg, p.o. was administered 30 min prior to Pentobarbitone.

Row | Effect on autonomic responses (Swiss mice [3]) | Change in barbiturate induced hypnosis (Swiss mice [6]) | Sleep-duration (MEAN ± SE) (Swiss mice [6]) [min] | Structure (SMILES) | Anti-convulsant activity (Swiss mice [1]) | Numbers of mice showed seizures/numbers of mice tested (Swiss mice [1]) | Effect on neuromuscular coordination as compared to control (Swiss mice [2]) | Rota rod test-numbers of falls (Swiss mice [2]; 30 min) | Rota rod test-numbers of falls (Swiss mice [2]; 60 min) | Rota rod test-stay period at 1 h (MEAN ± SE) (Swiss mice [2]) [s] | Rota rod test-numbers of falls (Swiss mice [2]; 90 min) | Rota rod test-numbers of falls (Swiss mice [2]; 180 min) | Rota rod test-numbers of falls (Swiss mice [2]; Pre-tt (0)) | Muscle tone score (hind limb rigidity) (Swiss mice [2]) | % Fall in lipid levels HDL (db/db mice [4]) | % Fall in lipid levels Chol. (db/db mice [4]) | % Fall in lipid levels TG (db/db mice [4]) [%] | % Fall in blood glucose levels, 6 days (db/db mice [5]) [%] | % Fall in blood glucose levels, 10 days (db/db mice [5])
1 | did not show any significant effect | did not show any significant change | 103.4 ± 15.27 | CC(C)NCC(O)COc1ccc2c(=O)cc(-c3cc(O)cc(O)c3)oc2c1 (centres unmarked) [Compound 49, 3′,5′-Dihydroxy-7-(2-hydroxy-3-iso-propylamino-propoxy)-flavone] | did not show any significant anti-convulsant activity | 5/5 | did not show any significant effect | 0 | 1/8 | 112.25 ± 7.75 | 0 | 0 | 0 | 1 | +12.7% | 17.2% | 24.1 | 9.38 | 20.8% and 20.5%
2 |  |  |  | COc1cc(-c2cc(=O)c3ccc(OCCCOc4ccc(C=C5SC(=O)NC5=O)cc4)cc3o2)cc(OC)c1OC [Compound 65, 7-{3-[4-(thiazolidin-2,4-dione-5-ylidinemethyl)-phenoxy]-propoxy}-3′,4′,5′-trimethoxy-flavone] |  |  |  |  |  |  |  |  |  |  | 35.2% | 1.06% | 19.1 | 19.1 | 21.4%
3 | did not show any significant effect | did not show any significant change | 122.5 ± 16.7 | CC(C)(C)NCC(O)COc1ccc2c(=O)cc(-c3cc(OCc4ccccc4)cc(OCc4ccccc4)c3)oc2c1 (centres unmarked) [Compound 34, 7-(3-tert-Butylamino-2-hydroxy-propoxy)-3′,5′-dibenzyloxy-flavone] | did not show any significant anti-convulsant activity | 5/5 | did not show any significant effect | 0 | 1/8 | 111.87 ± 8.82 | 0 | 0 | 0 | 1 | +19.3% | +26.9% | 33.5 | 26.4 | 57.1%
